Laboratory results from patent US20240391955A1, “PEPTIDE HAVING ANTI-AGING ACTIVITY, AND USE THEREOF” (CAREGEN CO., LTD., priority 2021, published 2024).

Columns and labels:
fibronectin gene = test: Fibronectin gene expression by RT-PCR in fibroblasts; format: cell-based, mouse; conditions: NIH3T3 cells, peptide 10, 50, 100 μM, 24 hours, FIG. 1
Protocol: (§1) First, NIH3T3 cells (mouse fibroblast cell line) were seeded in a 6-well plate at a cell density of 3×10^5 cell/well, and then the cells were cultured in DMEM medium containing 10% fetal bovine serum (FBS) for 24 hours. The cultured cells were washed once with serum free DMEM medium, and the peptide of the present invention was mixed in 1 mL of the serum free DMEM medium at each of concentrations of 10, 50, and 100 μM, and dispensed into the cells. A positive control (PC) was treated with 5 ng/ml of TGF-β1 instead of the above peptide. The cells were cultured in a CO2 incubator at 37° C. for 24 hours.
(§2) The cultured cells were washed twice with PBS, and RNA was extracted from the cells using easy blue (iNtRON, Cat. No.: 17061, Korea). The amount of RNA extracted was quantified, 1,000 ng of RNA was added per tube, and RT reaction was performed using a kit (enzynomics, Cat. No.: […], Korea). RT-PCR was performed using a PCR kit (enzynomics, Cat. No.: […], Korea). The sequences of the primers of fibronectin and elastin used in RT-PCR and the sequence of the primer of GAPDH used to compare the total RNA amount of each treatment group are shown in [Table 2].

elastin gene = test: Elastin gene expression by RT-PCR in fibroblasts; format: cell-based, mouse; conditions: NIH3T3 cells, peptide 10, 50, 100 μM, 24 hours, FIG. 1
Protocol: as §1, §2

collagen = test: Collagen protein secretion by ELISA in NIH3T3 fibroblasts; format: cell-based, mouse; conditions: peptide 10, 50, 100 μM, 72 hours, FIG. 2
Protocol: (§3) First, NIH3T3 cells and HaCaT cells (human keratinocyte cell line) were seeded in a 24-well plate at a cell density of 1×10^4 cell/well, and then the cells were cultured in DMEM medium containing 10% fetal bovine serum (FBS) for 24 hours. The cultured cells were washed once with serum free DMEM medium, and the peptide of the present invention was mixed in 2 mL of the serum free DMEM medium at each of concentrations of 10 μM, 50 μM, 100 μM, and 5 ng/ml, and dispensed into three wells by 500 μL per condition. NIH3T3 cells were treated with 5 ng/ml of TGF-β1 instead of the above peptide as a positive control (PC). HaCaT cells were treated with 10 nM of IGF-1 instead of the above peptide as a positive control (PC). The cells were cultured in a CO2 incubator at 37° C. for 72 hours.
(§4) The medium of the cultured NIH3T3 and HaCaT cells was centrifuged to settle a suspended matter, a supernatant was transferred to an e-tube, and then each of ELISA (abcam, Cat No.: ab210579, UK) and hyaluronic acid (HA) ELISA (ECHELON biosciences, Cat No.: K-1200, USA) was performed using the same.

hyaluronic acid = test: Hyaluronic acid secretion by HA ELISA in HaCaT keratinocytes; format: cell-based, human; conditions: peptide 10, 50, 100 μM, 72 hours, FIG. 2
Protocol: as §3, §4

SIRT1 = SIRT1 mRNA level by RT-PCR in HaCaT keratinocytes; format: cell-based, human; conditions: HaCaT cells, peptide 10, 50, 100 μM, 24 hours, FIG. 3
Protocol: (§5) First, HaCaT cells were seeded in a 6-well plate at a cell density of 3×10^5 cell/well, and then the cells were cultured in DMEM medium containing 10% fetal bovine serum (FBS) for 24 hours. The cultured cells were washed once with serum free DMEM medium, and then the peptide of the present invention was mixed in 1 mL of the serum free DMEM medium at each of concentrations of 10, 50, and 100 μM, and dispensed into the cells. A positive control (PC) was treated with 100 nM of EGF instead of the above peptide. The cells were cultured in a CO2 incubator at 37° C. for 24 hours.
(§6) The cultured cells were washed twice with PBS, and then RNA was extracted from the cells using easy blue (iNtRON, Cat. No.: 17061, Korea). The extracted RNA was subjected to RT reaction using a kit (enzynomics, Cat. No.: RT200, Korea). Thereafter, RT-PCR was performed using a PCR kit (enzynomics, Cat. No.: R581T, Korea). The sequences of the primers of SIRT1 and AQP3 used in RT-PCR and the sequence of the primer of GAPDH used to compare the total RNA amount of each treatment group are shown in [Table 2].

AQP3 = AQP3 mRNA level by RT-PCR in HaCaT keratinocytes; format: cell-based, human; conditions: HaCaT cells, peptide 10, 50, 100 μM, 24 hours, FIG. 3
Protocol: as §5, §6

[1] = system: intracellular reactive oxygen species in NIH3T3 cells; test: Intracellular ROS level after UVA irradiation (DCFH-DA, FACS); format: cell-based, mouse; conditions: peptide 10, 50, 100 μM, 8 J/cm^2 UVA, 24 hours after irradiation, FIG. 4
Protocol: as §5, with “NIH3T3” for “HaCaT”, “5×10^5” for “3×10^5”, “7.5 mM” for “100 nM”, “N-acetylcysteine (NaC)” for “EGF”, “peptide.” for “peptide. The cells were cultured in a CO2 incubator at 37° C. for 24 hours.”
The cells were cultured in a CO2 incubator at 37° C. for 1 hour. The medium of the cultured cells was transferred to a tube, 1 ml of PBS was added, and irradiation was performed with 8 J/cm^2 of UVA using a UV irradiator (VILBER LOURMAT, Cat No.: 3102-BSU, France). After removing PBS, 900 μL of the medium transferred to the tube was dispensed, and culture was performed in a CO2 incubator at 37° C. for 24 hours. After treatment with 10 μM of dichloro-dihydro-fluorescein diacetate (DCFH-DA), wrapping with a foil was performed, and culture was performed in a CO2 incubator at 37° C. for 30 minutes. The cells were washed twice with PBS, and 500 μL of 1XTE was dispensed to isolate the cells. After centrifugation, the cells were washed with PBS, and a fluorescence value was measured through FACS.

Colla1 = Colla1 mRNA level after UVA irradiation, RT-PCR; format: cell-based, mouse; conditions: NIH3T3 cells, peptide 10, 50, 100 μM, 6 J/cm^2 UVA, FIG. 5
Protocol: as §5, with “First, NIH3T3 cells were” for “First, HaCaT cells were”, “density of 5×10^5 cell/well, and” for “density of 3×10^5 cell/well, and”, “treated with 50 μM of Quercetin” for “treated with 100 nM of EGF”, “μM of Quercetin instead of” for “nM of EGF instead of”, “C. for 6 hours.” for “C. for 24 hours.”
(§7) The medium of the cultured cells was transferred to a tube (e-tube), 1 ml of PBS was added, and irradiation was performed with 6 J/cm^2 of UVA using a UV irradiator (VILBER LOURMAT, Cat No.: 3102-BSU, France). After removing PBS, 900 μL of the medium transferred to the tube was dispensed, and culture was performed in a CO2 incubator at 37° C. for 6 hours. The cultured cells were washed twice with PBS, and then RNA was extracted from the cells using easy blue (iNtRON, Cat. No.: 17061, Korea). The amount of RNA extracted was quantified, 1,000 ng of RNA was added per tube, and RT reaction was performed using a kit (enzynomics, Cat. No.: RT200, Korea) Thereafter, RT-PCR was performed using a PCR kit (enzynomics, Cat. No.: R581T, Korea). […]

fibronectin = test: Fibronectin mRNA level after UVA irradiation, RT-PCR; format: cell-based, mouse; conditions: NIH3T3 cells, peptide 10, 50, 100 μM, 6 J/cm^2 UVA, FIG. 5
Protocol: as §5, with “First, NIH3T3 cells were” for “First, HaCaT cells were”, “density of 5×10^5 cell/well, and” for “density of 3×10^5 cell/well, and”, “treated with 50 μM of Quercetin” for “treated with 100 nM of EGF”, “μM of Quercetin instead of” for “nM of EGF instead of”, “C. for 6 hours.” for “C. for 24 hours.”
as §7

elastin = test: Elastin mRNA level after UVA irradiation, RT-PCR; format: cell-based, mouse; conditions: NIH3T3 cells, peptide 10, 50, 100 μM, 6 J/cm^2 UVA, FIG. 5
Protocol: as §5, with “First, NIH3T3 cells were” for “First, HaCaT cells were”, “density of 5×10^5 cell/well, and” for “density of 3×10^5 cell/well, and”, “treated with 50 μM of Quercetin” for “treated with 100 nM of EGF”, “μM of Quercetin instead of” for “nM of EGF instead of”, “C. for 6 hours.” for “C. for 24 hours.”
as §7

MMP-1 [2] = test: MMP-1 expression after UVA irradiation, western blot; format: cell-based, mouse; conditions: NIH3T3 cells, peptide 10, 50, 100 μM, 6 J/cm^2 UVA, FIG. 6
Protocol: (§8) First, NIH3T3 cells were seeded in a 6-well plate at a cell density of 5×10^5 cell/well, and then the cells were cultured in DMEM medium containing 10% fetal bovine serum (FBS) for 24 hours. The cultured cells were washed once with serum free DMEM medium, and the peptide of the present invention was mixed in 1 mL of the serum free DMEM medium at each of concentrations of 10, 50, and 100 μM, and dispensed into the cells. A positive control (PC) was treated with 2.5 mM of N-acetylcysteine (NaC) instead of the above peptide.
The cells were cultured in a CO2 incubator at 37° C. for 1 hour. The medium of the cultured cells was transferred to a tube (e-tube), 1 ml of PBS was added, and irradiation was performed with 6 J/cm^2 of UVA using a UV irradiator (VILBER LOURMAT, Cat No.: 3102-BSU, France). After removing PBS, 900 μL of the medium transferred to the tube was added, and culture was performed in a CO2 incubator at 37° C. for 6 hours. The medium of the cultured cells was transferred to a tube, the cells were washed twice with PBS, and then a cell lysis buffer was added to lyse the cells. A sample was prepared by treating the cells with 5× sample buffer, and then SDS-PAGE was performed using 10% SDS-PAGE gel. The proteins isolated through SDS-PAGE were transferred to a PVDF membrane. Blocking was performed at room temperature for 1 hour using 5% skim milk. […]

MMP-2 = MMP-2 activity after UVA irradiation, gelatin zymography; format: cell-based, mouse; conditions: NIH3T3 cells, culture medium, peptide 10, 50, 100 μM, 6 J/cm^2 UVA, FIG. 6
MMP-1 [3] = test: MMP-1 protein after heat treatment, western blot; format: cell-based, mouse; conditions: NIH3T3 cells, peptide 10, 50, 100 μM, 44° C. for 40 minutes, FIG. 7
Protocol: as §8
The cells were cultured in a CO2 incubator at 37° C. for 24 hours. A lid and a lower plate of the 6-well plate were sealed with a paraffin film for heat treatment, the lower plate was immersed in a water bath at 44° C., and culture was performed for 40 minutes. After removing the medium, 1 mL of serum free DMEM medium was added, and culture was performed in a CO2 incubator at 37° C. for 8 hours. Thereafter, the cells were washed twice with PBS, and then a cell lysis buffer was added to obtain a lysate.
A sample was prepared by treating the cells with 5× sample buffer, and then SDS-PAGE was performed using 10% SDS-PAGE gel. The proteins isolated through SDS-PAGE were transferred to a PVDF membrane, and blocking was performed at room temperature for 1 hour using 5% skin milk. […]

KRRRKRK [SEQ ID NO: 1]
expression of fibronectin gene (fibronectin gene): gradually increased as the concentration of the peptide increased | expression of elastin gene (elastin gene): gradually increased as the concentration of the peptide increased | protein secretion of collagen (collagen): gradually increased as the concentration of the peptide increased | protein secretion of hyaluronic acid (hyaluronic acid): gradually increased as the concentration of the peptide increased | mRNA level of SIRT1 (SIRT1): increased | mRNA level of AQP3 (AQP3): increased | intracellular reactive oxygen species level increased by UV irradiation [1]: decreased | mRNA level of Colla1 decreased by UV irradiation (Colla1): increased again | mRNA level of fibronectin decreased by UV irradiation (fibronectin): increased again | mRNA level of elastin decreased by UV irradiation (elastin): increased again | expression of MMP-1 increased by UV irradiation (MMP-1 [2]): inhibited | activity of MMP-2 increased by UV irradiation (MMP-2): inhibited | amount of secretion of MMP-1 protein whose expression was increased by heat treatment (MMP-1 [3]): decreased
